{"source": "patent US11254958B1", "about": "“Metabolic engineering of E coli with thio-phosphate” (priority 2018, dated 2022)", "key": {"E coli": {"test_system": "E coli", "conditions": "cited from earlier work"}, "[1]": {"test_system": "E. coli K12 and JM109 strains", "test": "Morphological changes by bright field microscopy", "assay_type": "cell-based", "conditions": "K12, semi-synthetic media"}, "[2]": {"test_system": "Bacillus megaterium strain ATCC 15117", "test": "AICA production/secretion in fermentation with thio-phosphate", "assay_type": "cell-based", "procedure": "Bacillus megaterium was grown using a modified minimal media. In particular, the media contained: glucose, 60 g/L; KCL 1 g/L; MgSO4 0.4 g/L; peptone, 2 g/L; adenine, 0.25 g/L; NH4CI 8 g/L, urea, 3 g/L, calcium chloride, 0.5 g/L; as well as ferrous sulfate and manganese sulfate at 0.005 g/L. Thio-phosphate was added at levels between 2-6 g/L. For controls NaH2PO4 was add at 1 g/L.\nBacillus megaterium strain ATCC 15117 (U.S. Pat. No. 3,238,110 & 3,748,232) was used to examine the increased production of AICA using thio-phosphate. Cells were cultured at 26-30° C. for 4 days with 4 g/L of thio-phosphate or normal phosphate (1 g/L). […] The cells were pelleted, and the supernatant was acidified to pH 2 to help remove unwanted amino acids. The samples were then diluted with one volume of water and bound to activated charcoal with shaking for 2 hrs. (2 grams/20 ml) at room temp. The charcoal was collected on a filter with filtration and washed with 0.01 N HCl. AICA was then eluted with a solution of ethanol/ammonium hydroxide/water at a 1:1:2 ratio using a volume equivalent to the original supernatant. The samples were then separated and analyzed on Whatman chromatography paper using a solvent mixture of 50% butanol, 15% ethanol, and 35% water. The results indicated a ˜2× fold increase AICA per volume of cells.\nHistidine and tryptophan were added to fermentation reactions to enhance AICA yield by blocking the endogenous synthesis of these amino acids. […] Fermentation reactions were typically initiated with 1.5 ml of overnight growth in nutrient broth which was then diluted into 50 ml of the reaction media. […] Despite the high activity, the growth of these cells was inhibited, almost in parallel with the amount of AICA secreted."}, "E coli K12 bacteria [3]": {"test_system": "E coli K12 bacteria", "test": "Agilent analyzer profile of total RNA from control and thiophosphate treated cultures", "assay_type": "cell-based", "procedure": "(§1) E coli K12 bacteria were grown in high citrate minimal media with 5.4 g/L of thiophosphate or 2.4 g/L of Na2HPO4 for up to 12 hrs. The use of high citrate media was chosen to help lower the total amount of thiophosphate needed for growth when compared to regular M9 media (1). The media is prepared as follows: thiophosphate, 5.4 g/L; KCL 1.5 g/L; (NH4)2SO4, 2 g/L; sodium citrate 2H2O, 10 g/L. Adjust the pH to 7.5 and sterile filter the solution. Then add the following: MgSO4-7H2O, 0.2 g/L (sterilized separately as a conc. solution); glucose, 2 g/L sterilized separately by filtration). Glucose can also be sterilized by autoclaving separately. CaCl2 (11 mg/L) is also be added as needed.\nTotal RNA was isolated using Bioline's ISOLATE II RNA mini kit. […] The rRNA ratio (23s/16s) was at least 1.6. Note small RNAs like SS RNA were not retained under the conditions used. For rRNA depleted preparations, Ribominus (Invitrogen) was then used to deplete 23S and 16S rRNA. The ribosomal depleted RNA was then concentrated with the kit's concentration module prior to gel analysis.\nTo further examine this idea, an Agilent analyzer was used to analyze the profiles of total RNA from control cultures and thiophosphate treated cultures (FIG. 1). It was evident that in E. coli, there was an increase in the non-ribosomal fraction, particularly between the […] and 23S ribosomal RNAs, which was even more evident in ribosomal RNA depleted samples (FIG. 1). Quantitative analysis indicated the fraction of 16S and 23S rRNA in the profile of total RNA was depleted in TP cultures relative to controls. […] This corresponds to a reduction of 8.8%. To estimate the fold increase in mRNA that could account for such a change, one needs to know the % of total RNA that is mRNA."}, "E coli K12 bacteria [4]": {"test_system": "E coli K12 bacteria", "test": "Microarray analysis (Affymetrix E. coli Genome 2.0)", "assay_type": "cell-based", "procedure": "as §1\nBoth Microarray and RNA seq analysis was performed. Total RNA was used for both studies. For microarray studies, raw Affymetrix CEL files (E. coli Genome 2.0) were normalized to produce probeset-level expression values for all probesets with Expression Console (version 1.4.1.46), using the Robust Multiarray Average (RMA) and Detection Above BackGround (DABG) (Irizarry R. A et al. 2003, Biostatistics 4(2): 249-64. doi:10.1093/biostatistics/4.2.249). The analysis was limited to 10,112 E. coli probesets interrogated by the array. Fold changes were computed using the R environment for statistical computing (version 2.15.1) by Boston University Microarray and Sequencing (CTSA grant #1UL1TR001430)."}, "[5]": {"conditions": "4 g/L thio-phosphate vs normal phosphate"}, "[6]": {"conditions": "twice as many starter cells, 50 mg each of his and trp"}, "[7]": {"conditions": "microarray (value outside parentheses)"}}, "data": [{"smiles": "OP(O)(O)=S", "note": "[thio-phosphate]", "values": [{"measurement": "protein spots significantly changed", "setting": "E coli; previous studies", "value": 28, "unit": "%"}, {"measurement": "average fold change of proteins", "setting": "E coli; prior protein results", "value": "~5", "unit": "× fold"}, {"measurement": "proteins decreased", "setting": "E coli; prior protein results", "value": 13, "unit": "%"}, {"measurement": "proteins increased", "setting": "E coli; prior protein results", "value": 15, "unit": "%"}, {"measurement": "time by which filaments were detected", "setting": "[1]", "value": "≤ 8", "unit": "h"}, {"measurement": "time by which paired bacteria could be seen", "setting": "[1]", "value": "≤ 2", "unit": "h"}, {"measurement": "effect on cells by day 4", "setting": "[2]; 100 mg of histidine and tryptophan each per liter", "value": "cell lysis"}, {"measurement": "growth recovery by day 4", "setting": "[2]; 4 g/L thio-phosphate", "value": "60-100 % of controls"}, {"measurement": "growth after 24 hrs", "setting": "[2]; [5]", "value": "the same"}, {"measurement": "growth recovered by the third day", "setting": "[2]; [5]", "value": "normal or 60% of normal levels"}, {"measurement": "fold increase AICA per volume of cells", "setting": "[2]; 4 g/L thio-phosphate vs normal phosphate (1 g/L), 26-30° C., 4 days", "value": "~2", "unit": "× fold"}, {"measurement": "AICA levels increased", "setting": "[2]; per cell mass basis compared to normal phosphate containing culture media", "value": 2, "unit": "×"}, {"measurement": "cell specific yield of AICA", "setting": "[2]; [6]", "value": "5-6 × fold"}, {"measurement": "growth of cells", "setting": "[2]; [6]", "value": "inhibited"}, {"measurement": "midpoint of the non-ribosomal RNA peak", "setting": "E coli K12 bacteria [3]", "value": "~2,000 NT"}, {"measurement": "reduction of 16S and 23S rRNA fraction relative to controls", "setting": "E coli K12 bacteria [3]", "value": 8.8, "unit": "%"}, {"measurement": "fold increase in mRNA or non-ribosomal RNA relative to ribosomal RNA", "setting": "E coli K12 bacteria [3]; assuming mRNA is normally 2% of the total", "value": 5.5, "unit": "× fold"}, {"measurement": "16S and 23S rRNA as fraction of total RNA", "setting": "E coli K12 bacteria [3]; average of two replicates", "value": 42.5, "unit": "%"}, {"measurement": "average fold change of 19 genes with unstable mRNAs", "setting": "E coli K12 bacteria [4]; half-lives less than or equal to 1.4 minutes", "value": "1.0+/−2.8"}, {"measurement": "Dxs transcript fold enhancement", "setting": "E coli K12 bacteria [4]; microarray", "value": 2.5, "unit": "× fold"}, {"measurement": "FabB transcript elevation", "setting": "E coli K12 bacteria [4]; microarray", "value": 3, "unit": "×"}, {"measurement": "TesA transcript elevation", "setting": "E coli K12 bacteria [4]; microarray", "value": 4, "unit": "×"}, {"measurement": "Udp transcript fold reduction", "setting": "E coli K12 bacteria [4]; microarray", "value": 3.2, "unit": "× fold"}, {"measurement": "Upp transcript increase", "setting": "E coli K12 bacteria [4]; microarray", "value": 2, "unit": "×"}, {"measurement": "accA transcript elevation", "setting": "E coli K12 bacteria [4]; microarray", "value": 1.3}, {"measurement": "accC transcript elevation", "setting": "E coli K12 bacteria [4]; microarray", "value": 3.2}, {"measurement": "accD transcript elevation", "setting": "E coli K12 bacteria [4]; microarray", "value": 1.4}, {"measurement": "adk transcript fold elevation", "setting": "E coli K12 bacteria [4]; microarray", "value": 1.5, "unit": "× fold"}, {"measurement": "dusB transcript fold elevation", "setting": "E coli K12 bacteria [4]; microarray", "value": "≥ 3", "unit": "× fold"}, {"measurement": "infB transcript fold elevation", "setting": "E coli K12 bacteria [4]; microarray", "value": 3.1, "unit": "× fold"}, {"measurement": "ispD transcript fold enhancement", "setting": "E coli K12 bacteria [4]; microarray", "value": 2.5, "unit": "× fold"}, {"measurement": "other IPP/DMAPP synthesis gene transcripts (the others) fold enhancement", "setting": "E coli K12 bacteria [4]; microarray", "value": "~1.3", "unit": "× fold"}, {"measurement": "prsA transcript elevation", "setting": "E coli K12 bacteria [4]; microarray", "value": "< 2", "unit": "×"}, {"measurement": "pyrF transcript fold elevation", "setting": "E coli K12 bacteria [4]; microarray", "value": 3.7, "unit": "× fold"}, {"measurement": "rlmH transcript fold elevation", "setting": "E coli K12 bacteria [4]; microarray", "value": "at least 3.4 × fold"}, {"measurement": "rpoS transcript fold elevation", "setting": "E coli K12 bacteria [4]; microarray", "value": 3, "unit": "× fold"}, {"measurement": "tadA transcript fold elevation", "setting": "E coli K12 bacteria [4]; microarray", "value": "≥ 3", "unit": "× fold"}, {"measurement": "trmA transcript fold elevation", "setting": "E coli K12 bacteria [4]; microarray", "value": "≥ 3", "unit": "× fold"}, {"measurement": "ycih transcript fold elevation", "setting": "E coli K12 bacteria [4]; microarray", "value": 3.3, "unit": "× fold"}, {"measurement": "yqgf transcript fold elevation", "setting": "E coli K12 bacteria [4]; microarray", "value": "at least 3.4 × fold"}, {"measurement": "dacA transcript elevation", "setting": "E coli K12 bacteria [4]; [7]", "value": 3.6, "unit": "× fold"}, {"measurement": "ftsI transcript elevation", "setting": "E coli K12 bacteria [4]; [7]", "value": 1.6, "unit": "×"}, {"measurement": "idtB transcript elevation", "setting": "E coli K12 bacteria [4]; [7]", "value": 2, "unit": "×"}, {"measurement": "idtC transcript elevation", "setting": "E coli K12 bacteria [4]; [7]", "value": 5.2, "unit": "×"}, {"measurement": "FabA, FabG, FabZ, FabI, FabF gene transcripts", "setting": "E coli K12 bacteria [4]; microarray and RNA seq", "value": "elevated"}, {"measurement": "tRNA synthetases average increase", "setting": "E coli K12 bacteria [4]; microarray, 20 genes", "value": 1.24, "unit": "× fold"}, {"measurement": "CspA transcript fold increase", "setting": "E coli K12 bacteria [4]; microarray, vs control", "value": 3.1, "unit": "× fold"}, {"measurement": "nusA transcript fold increase", "setting": "E coli K12 bacteria [4]; microarray, vs control", "value": 2.6, "unit": "× fold"}, {"measurement": "pgsA mRNA fold enhancement", "setting": "E coli K12 bacteria [4]; platform not given", "value": 1.9, "unit": "× fold"}, {"measurement": "plsB mRNA fold enhancement", "setting": "E coli K12 bacteria [4]; platform not given", "value": 1.9, "unit": "× fold"}, {"measurement": "pssA mRNA fold enhancement", "setting": "E coli K12 bacteria [4]; platform not given", "value": 1.9, "unit": "× fold"}, {"measurement": "average fold change for 10,110 transcripts", "setting": "E coli K12 bacteria [4]; standard deviation 1.4", "value": "−0.1"}, {"measurement": "average fold change of 23 mRNAs with half-lives greater than 10 minutes", "setting": "E coli K12 bacteria [4]; standard deviation 2.44", "value": 1.2}]}]}
